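In this assay, cells in 96-well plates receive the compound at five concentrations for 48 hours. Endpoints are linearly interpolated between the surrounding concentrations. Abbreviation: GI50, concentration required for 50% inhibition of growth. TGI denotes the concentration required for complete inhibition of growth.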
Assays:
Assay in all cases: NCI tumour cell line growth inhibition, 48 h
SK-MEL-28 melanoma = system: SK-MEL-28 melanoma
EKVX NSCLC = system: EKVX NSCLC
RXF 393 renal = system: RXF 393 renal
SF-539 CNS = system: SF-539 CNS
NCI-H226 lung = system: NCI-H226 lung
SW-620 colon = system: SW-620 colon
MALME-3M melanoma = system: MALME-3M melanoma
SNB-19 CNS = system: SNB-19 CNS
HCC-2998 colon = system: HCC-2998 colon
OVCAR-3 ovarian = system: OVCAR-3 ovarian
A498 renal = system: A498 renal
HS 578T breast = system: HS 578T breast
HOP-62 NSCLC = system: HOP-62 NSCLC
SF-295 CNS = system: SF-295 CNS
UACC-62 melanoma = system: UACC-62 melanoma
SK-OV-3 ovarian = system: SK-OV-3 ovarian
NCI-H23 lung = system: NCI-H23 lung
NCI-H460 lung = system: NCI-H460 lung
IGROV1 ovarian = system: IGROV1 ovarian
OVCAR-4 ovarian = system: OVCAR-4 ovarian
T-47D breast = system: T-47D breast
MCF7 breast = system: MCF7 breast
MOLT-4 leukemia = system: MOLT-4 leukemia
KM12 colon = system: KM12 colon
BT-549 breast = system: BT-549 breast
HCT-15 colon = system: HCT-15 colon
M14 melanoma = system: M14 melanoma
SK-MEL-5 melanoma = system: SK-MEL-5 melanoma
K-562 leukemia = system: K-562 leukemia

## OCc1cn(Cc2ccc(Cl)cc2)c2ccccc12
SK-MEL-28 melanoma
  GI50: 15.1 µM
  TGI: 44 µM
EKVX NSCLC
  GI50: 21.1 µM
  TGI: 60 µM
RXF 393 renal
  GI50: 0.424 µM
  TGI: 4.44 µM
SF-539 CNS
  GI50: 11.5 µM
  TGI: 27.8 µM
NCI-H226 lung
  GI50: < 0.01 µM
  TGI: 0.106 µM
SW-620 colon
  GI50: 0.811 µM
  TGI: 22.9 µM
MALME-3M melanoma
  GI50: 8.68 µM
  TGI: 30.5 µM
SNB-19 CNS
  GI50: 15.8 µM
  TGI: 64.5 µM
HCC-2998 colon
  GI50: 4.09 µM
  TGI: 20.3 µM
OVCAR-3 ovarian
  GI50: 0.495 µM
  TGI: 8.23 µM
A498 renal
  GI50: 0.0115 µM
  TGI: 0.0323 µM
HS 578T breast
  GI50: 4.76 µM
  TGI: 25.6 µM
HOP-62 NSCLC
  GI50: 0.84 µM
  TGI: 21.7 µM
SF-295 CNS
  GI50: 1.62 µM
  TGI: 32.9 µM
UACC-62 melanoma
  GI50: 0.0565 µM
  TGI: 0.601 µM
SK-OV-3 ovarian
  GI50: 2.88 µM
  TGI: 33.2 µM
NCI-H23 lung
  GI50: 3.85 µM
  TGI: 21.1 µM
NCI-H460 lung
  GI50: 0.124 µM
  TGI: 18.5 µM
IGROV1 ovarian
  GI50: < 0.0227 µM
  TGI: 0.709 µM
OVCAR-4 ovarian
  GI50: 0.281 µM
  TGI: 7.69 µM
T-47D breast
  GI50: 0.0386 µM
  TGI: 0.55 µM
MCF7 breast
  GI50: 0.105 µM
  TGI: 9.02 µM
MOLT-4 leukemia
  GI50: 19.6 µM
  TGI: 54 µM
KM12 colon
  GI50: 16.9 µM
  TGI: 38.1 µM
BT-549 breast
  GI50: 3.65 µM
  TGI: 17.5 µM
HCT-15 colon
  GI50: 3.44 µM
  TGI: 28.5 µM
M14 melanoma
  GI50: 5.95 µM
  TGI: 22.1 µM
SK-MEL-5 melanoma
  GI50: 4.59 µM
  TGI: 18.6 µM
K-562 leukemia
  GI50: 1.61 µM
  TGI: 25.4 µM

From PubChem BioAssay (NCI)
